Data reported in ChEMBL document CHEMBL5614430, “Discovery, synthesis and SAR of 2-acyl-1-biarylmethyl pyrazolidines, dual orexin receptor antagonists designed as fast and short-acting sleeping drugs” (Bioorg Med Chem, 2024).

How the values were obtained:
physchem = settings: buffer, pH 7.4
in vitro = settings: dog, MDCK-MDR1, Papp
in vivo [1] = settings: Beagle, dog, iv, 1 mg/kg
in vivo [2] = settings: Beagle, dog, po, 10 mg/kg
in vivo [3] = settings: Beagle, dog, po, 10 mg/kg; remark: listed apart in the source
in vivo [4] = settings: Beagle, dog, iv, 1 mg/kg; remark: listed apart in the source
in vivo [5] = settings: Beagle, dog, po, 10 mg/kg; remark: listed apart in the source
in vivo [6] = settings: Beagle, dog, po, 10 mg/kg; remark: listed apart in the source

| SMILES | logD (physchem) | Papp A→B (in vitro) [×10⁻⁶ cm/s] | further results |
| --- | --- | --- | --- |
| COc1cc(CN2[C@H]3c4ccccc4OC[C@H]3CN2C(=O)C2CCCCC2)cc(OC)c1 | 3.8 | 17 | – |
| Cc1ccc(-n2nccn2)c(C(=O)N2CCCN2Cc2ccn(-c3ccccc3)n2)c1 | – | – | clearance (in vivo [1]): 17 mL/min/kg; Cmax (in vivo [2]): 287 ng/mL; Tmax (in vivo [3]): 3.55 h; Vd (in vivo [4]): 0.8 L/kg; bioavailability (in vivo [5]): 10%; AUC (in vivo [6]): 1040 ng·h/mL |
| O=C(C1CCCCC1)N1C[C@@H]2COc3ccccc3[C@@H]2N1Cc1cccc(-c2ncon2)c1 | > 4.1 | – | – |
| Cn1ccc(C(=O)N2C[C@@H]3COc4cc(F)ccc4[C@@H]3N2Cc2cccc(-c3ncccn3)c2)n1 (racemic) | 2.8 | 0.78 | – |
| Cn1ccc(C(=O)N2C[C@@H]3CCc4cc(F)ccc4[C@@H]3N2Cc2cccc(-c3ncccn3)c2)n1 (racemic) | 3.3 | 9.3 | – |
